{
  "source": "paper PMC7373712",
  "about": "(British Journal of Clinical Pharmacology, 2020)",
  "key": {"[1]": {"settings": "cited from earlier work"}, "[2]": {"test": "Pharmacokinetics of oral microdosed FXaI cocktail", "settings": "for sex differences in pharmacokinetics (in words): 7 male, 11 female; for Cl/F (apparent oral clearance) / Ae (amount excreted in urine as parent drug): geom. mean (95% CI); for interaction / change of pharmacokinetics during voriconazole (in words): microdose cocktail with voriconazole"}, "[3]": {"test": "Safety: adverse events in study participants", "settings": "for total number of AEs / participants with adverse event (AE): during the treatment named; for participants with adverse event (AE): healthy participants"}, "CYP3A": {"tested_on": "CYP3A", "test": "CYP3A activity by oral microdosed midazolam", "settings": "for AUC: both, human, in vivo, geom. mean"}, "[4]": {"settings": "cited from earlier work", "remark": "listed apart in the source"}, "[5]": {"settings": "microdose cocktail alone, cobicistat cohort (n = 6)"}, "[6]": {"settings": "microdose cocktail alone, rifampicin cohort (n = 6)"}, "[7]": {"settings": "microdose cocktail alone, voriconazole cohort (n = 6)"}, "[8]": {"settings": "microdose cocktail during voriconazole (n = 6)"}, "[9]": {"settings": "FXaI with cobicistat / FXaI alone"}},
  "note": "Read-outs that look alike come from different tables or passages of the source.",
  "data": [
    {"molecule": "COc1ccc(-n2nc(C(N)=O)c3c2C(=O)N(c2ccc(N4CCCCC4=O)cc2)CC3)cc1", "note": "[apixaban]", "values": [
      {"measurement": "excreted unchanged into faeces and urine", "setting": "[1]; given orally", "result": "≥ 50", "unit": "%"},
      {"measurement": "fraction metabolised by CYP1A2 and CYP2J2", "setting": "[1]; given orally", "result": "about 6%"},
      {"measurement": "fraction metabolised via CYP3A", "setting": "[1]; given orally", "result": "approximately 15%"},
      {"measurement": "not identified or recovered so far", "setting": "[1]; given orally", "result": "about 22%"},
      {"measurement": "sex differences in pharmacokinetics (in words)", "setting": "[2]", "result": "No sex differences"},
      {"measurement": "Cl/F reduced to (% of FXaI alone)", "setting": "[2]; by cobicistat", "result": 60, "unit": "%"},
      {"measurement": "Vss/F reduced to (% of FXaI alone)", "setting": "[2]; by cobicistat", "result": "~50", "unit": "%"},
      {"measurement": "increase of AUC", "setting": "[2]; by cobicistat", "result": 67, "unit": "%"},
      {"measurement": "reduction of clearance", "setting": "[2]; by cobicistat", "result": 40, "unit": "%"},
      {"measurement": "Cl/F reduced to (% of FXaI alone)", "setting": "[2]; by single dose rifampicin", "result": 75, "unit": "%"},
      {"measurement": "Vss/F reduced to (% of FXaI alone)", "setting": "[2]; by single dose rifampicin", "result": "~50", "unit": "%"},
      {"measurement": "effect on Cmax (increase)", "setting": "[2]; by single dose rifampicin", "result": 69, "unit": "%"},
      {"measurement": "reduction of clearance", "setting": "[2]; by single dose rifampicin", "result": 25, "unit": "%"},
      {"measurement": "terminal elimination half-life shortening", "setting": "[2]; by single dose rifampicin", "result": "~40", "unit": "%"},
      {"measurement": "Cl/F reduced to (% of FXaI alone)", "setting": "[2]; by voriconazole", "result": 75, "unit": "%"},
      {"measurement": "effect on Cmax (increase)", "setting": "[2]; by voriconazole", "result": 15, "unit": "%"},
      {"measurement": "reduction of apparent oral clearance (Cl/F)", "setting": "[2]; by voriconazole", "result": 25, "unit": "%"},
      {"measurement": "renal clearance reduced to (% of FXaI alone)", "setting": "[2]; during cobicistat", "result": 70, "unit": "%"},
      {"measurement": "Cl/F (apparent oral clearance)", "setting": "[2]; [5]", "result": "66.4 (60.0–73.5) mL/min"},
      {"measurement": "Cl/F (apparent oral clearance)", "setting": "[2]; [6]", "result": "53.6 (44.5–64.6) mL/min"},
      {"measurement": "Cl/F (apparent oral clearance)", "setting": "[2]; [7]", "result": "78.0 (69.0–88.4) mL/min"},
      {"measurement": "Cl/F (apparent oral clearance)", "setting": "[2]; [8]", "result": "58.8 (42.5–81.4) mL/min"},
      {"measurement": "interaction / change of pharmacokinetics during voriconazole (in words)", "setting": "[2]", "result": "minor interaction"}
    ]},
    {"molecule": "CN1CCc2nc(C(=O)N[C@@H]3C[C@@H](C(=O)N(C)C)CC[C@@H]3NC(=O)C(=O)Nc3ccc(Cl)cn3)sc2C1", "note": "[edoxaban]", "values": [
      {"measurement": "oral bioavailability", "setting": "[1]", "result": "~ 50%"},
      {"measurement": "excreted unchanged into urine", "setting": "[1]; of an oral dose", "result": "About 24%"},
      {"measurement": "found in faeces as parent drug", "setting": "[1]; of the oral dose", "result": "~ 50%"},
      {"measurement": "sex differences in pharmacokinetics (in words)", "setting": "[2]", "result": "No sex differences"},
      {"measurement": "Cl/F reduced to (% of FXaI alone)", "setting": "[2]; by cobicistat", "result": 57, "unit": "%"},
      {"measurement": "Vss/F reduced to (% of FXaI alone)", "setting": "[2]; by cobicistat", "result": 42, "unit": "%"},
      {"measurement": "terminal elimination half-life shortening", "setting": "[2]; by cobicistat", "result": 25, "unit": "%"},
      {"measurement": "Cl/F reduced to (% of FXaI alone)", "setting": "[2]; by single dose rifampicin", "result": 53, "unit": "%"},
      {"measurement": "Vss/F reduced to (% of FXaI alone)", "setting": "[2]; by single dose rifampicin", "result": 37, "unit": "%"},
      {"measurement": "terminal elimination half-life shortening", "setting": "[2]; by single dose rifampicin", "result": 30, "unit": "%"},
      {"measurement": "increased fraction excreted unchanged into urine", "setting": "[2]; by single oral dose of rifampicin", "result": 48.7, "unit": "%"},
      {"measurement": "Ae (amount excreted in urine as parent drug)", "setting": "[2]; [5]", "result": "32.3 (23.6–44.3) % of dose"},
      {"measurement": "Cl/F (apparent oral clearance)", "setting": "[2]; [5]", "result": "682 (578–804) mL/min"},
      {"measurement": "Ae (amount excreted in urine as parent drug)", "setting": "[2]; [6]", "result": "27.2 (19.1–38.8) % of dose"},
      {"measurement": "Cl/F (apparent oral clearance)", "setting": "[2]; [6]", "result": "643 (499–829) mL/min"},
      {"measurement": "Ae (amount excreted in urine as parent drug)", "setting": "[2]; [7]", "result": "24.4 (17.7–33.6) % of dose"},
      {"measurement": "Cl/F (apparent oral clearance)", "setting": "[2]; [7]", "result": "882 (619–1255) mL/min"},
      {"measurement": "Ae (amount excreted in urine as parent drug)", "setting": "[2]; [8]", "result": "29.4 (21.2–40.8) % of dose"},
      {"measurement": "Cl/F (apparent oral clearance)", "setting": "[2]; [8]", "result": "700 (445–1100) mL/min"},
      {"measurement": "interaction / change of pharmacokinetics during voriconazole (in words)", "setting": "[2]", "result": "none and No significant change"}
    ]},
    {"molecule": "C[C@@H](c1ncncc1F)[C@](O)(Cn1cncn1)c1ccc(F)cc1F", "note": "[voriconazole]", "values": [
      {"measurement": "total number of AEs", "setting": "[3]", "result": 7},
      {"measurement": "participants with adverse event (AE)", "setting": "[3]", "result": "Five out of 6"},
      {"measurement": "visual disturbances (number of AEs)", "setting": "[3]; during voriconazole treatment", "result": 4},
      {"measurement": "CYP3A inhibition (in words)", "setting": "CYP3A; judged from microdosed midazolam exposure", "result": "strong CYP3A inhibitors"}
    ]},
    {"molecule": "Cn1c(Cn2ccc(C(F)(F)F)c(Oc3cc(Cl)cc(C#N)c3)c2=O)n[nH]c1=O", "note": "[doravirine]", "values": [
      {"measurement": "elimination half-life", "setting": "[1]; alone", "result": 18.6, "unit": "h"},
      {"measurement": "elimination half-life", "setting": "[1]; with a single dose of rifampicin", "result": 5.5, "unit": "h"}
    ]},
    {"molecule": "CC(C)c1nc(CN(C)C(=O)N[C@@H](CCN2CCOCC2)C(=O)N[C@H](CC[C@H](Cc2ccccc2)NC(=O)OCc2cncs2)Cc2ccccc2)cs1", "note": "[cobicistat]", "values": [
      {"measurement": "total number of AEs", "setting": "[3]", "result": 3},
      {"measurement": "participants with adverse event (AE)", "setting": "[3]", "result": "3 out of 6"}
    ]},
    {"molecule": "CO[C@H]1/C=C/O[C@@]2(C)Oc3c(C)c(O)c4c(O)c(c(/C=N/N5CCN(C)CC5)c(O)c4c3C2=O)NC(=O)/C(C)=C\\C=C\\[C@H](C)[C@H](O)[C@@H](C)[C@@H](O)[C@@H](C)[C@H](OC(C)=O)[C@@H]1C", "note": "[rifampicin]", "values": [
      {"measurement": "participants with adverse event (AE)", "setting": "[3]", "result": "none"}
    ]},
    {"molecule": "O=C(NC[C@H]1CN(c2ccc(N3CCOCC3=O)cc2)C(=O)O1)c1ccc(Cl)s1", "note": "[rivaroxaban]", "values": [
      {"measurement": "AUC ratio with and without ketoconazole", "setting": "[4]; microdosed FXaI cocktail", "result": 2.27},
      {"measurement": "AUC ratio with and without ketoconazole", "setting": "[4]; therapeutic dose, single-dose, 200 mg ketoconazole", "result": 1.82},
      {"measurement": "AUC ratio with and without ketoconazole", "setting": "[4]; therapeutic dose, steady-state, 400 mg ketoconazole", "result": 2.58},
      {"measurement": "share of CYP3A and CYP2J2 in total clearance", "setting": "[1]", "result": "~ 32%"},
      {"measurement": "sex differences in pharmacokinetics (in words)", "setting": "[2]", "result": "No sex differences"},
      {"measurement": "AUC ratio (AUCR)", "setting": "[2]; [9]", "result": 2.0},
      {"measurement": "Cmax ratio", "setting": "[2]; [9]", "result": 1.39},
      {"measurement": "Vss/F reduced to (% of FXaI alone)", "setting": "[2]; by cobicistat", "result": 72, "unit": "%"},
      {"measurement": "renal clearance reduced by", "setting": "[2]; by cobicistat", "result": "~50", "unit": "%"},
      {"measurement": "terminal elimination half-life prolongation", "setting": "[2]; by cobicistat", "result": 40, "unit": "%"},
      {"measurement": "Vss/F reduced to (% of FXaI alone)", "setting": "[2]; by single dose rifampicin", "result": 64, "unit": "%"},
      {"measurement": "terminal elimination half-life shortening", "setting": "[2]; by single dose rifampicin", "result": 31, "unit": "%"},
      {"measurement": "change of AUC", "setting": "[2]; by voriconazole", "result": 33, "unit": "%"},
      {"measurement": "reduction of apparent oral clearance (Cl/F)", "setting": "[2]; by voriconazole", "result": 33, "unit": "%"},
      {"measurement": "Ae (amount excreted in urine as parent drug)", "setting": "[2]; [5]", "result": "44.5 (32.5–61.1) % of dose"},
      {"measurement": "Cl/F (apparent oral clearance)", "setting": "[2]; [5]", "result": "104 (84–129) mL/min"},
      {"measurement": "Ae (amount excreted in urine as parent drug)", "setting": "[2]; [6]", "result": "54.8 (48.7–61.6) % of dose"},
      {"measurement": "Cl/F (apparent oral clearance)", "setting": "[2]; [6]", "result": "113 (84–152) mL/min"},
      {"measurement": "Ae (amount excreted in urine as parent drug)", "setting": "[2]; [7]", "result": "53.7 (46.2–60.1) % of dose"},
      {"measurement": "Cl/F (apparent oral clearance)", "setting": "[2]; [7]", "result": "121 (85–172) mL/min"},
      {"measurement": "Ae (amount excreted in urine as parent drug)", "setting": "[2]; [8]", "result": "55.5 (47.8–64.4) % of dose"},
      {"measurement": "Cl/F (apparent oral clearance)", "setting": "[2]; [8]", "result": "92 (62–137) mL/min"},
      {"measurement": "interaction / change of pharmacokinetics during voriconazole (in words)", "setting": "[2]", "result": "minor interaction"}
    ]},
    {"molecule": "Cc1ncc2n1-c1ccc(Cl)cc1C(c1ccccc1F)=NC2", "note": "[midazolam]", "values": [
      {"measurement": "AUC", "setting": "CYP3A; AUC2–4, 10 μg midazolam + cobicistat (n = 6)", "result": 0.27, "unit": "ng·h/mL"},
      {"measurement": "AUC", "setting": "CYP3A; AUC2–4, 10 μg midazolam + voriconazole (n = 6)", "result": 0.285, "unit": "ng·h/mL"}
    ]}
  ]
}
